Values after ≈ are worked out from the molar mass of the structure shown. Read-outs that look alike come from different tables or passages of the source.
Legend:
[1] = MTT cell viability / cytotoxicity on normal fibroblasts; assay type: cell-based, mouse; conditions: mouse, NCTC clone 929 (L929) mouse fibroblast cells
Source text: Merck chemicals were utilized.
Untreated cells were used as control, considered 100% viable cells.

[2] = system: Staphylococcus aureus ATCC25923; experiment: Antibiofilm assay (crystal violet), MBIC; assay type: cell-based; conditions: 24 h, 37 °C; for minimal effective concentration: Staphylococcus aureus, ATCC25923, read-out: Minimum biofilm inhibition concentration (MBIC), Staphylococcus aureus ATCC25923
Experimental: (§1) Microorganisms were grown in 96-well plates filled with nutrient broth along with test substances, followed by incubation at 37 °C for 24 h. Plates were cleaned and rinsed thrice using SPW solution (sterile physiological water). After that, the attached cells were treated with 110 μL of methanol for 5 min, and then the methanol was removed by turning it upside down. […] Once stained, the solution was removed, and the plates were washed with running tap water. […] The antimicrobial/antibiofilm activity of the compounds was evaluated against two antibiotics, commercial formulations of metronidazole and nitrofurantoin.

[3] = system: HEp-2 epithelial tumor cells; experiment: MTT cell viability / anti-tumor activity; conditions: Homo sapiens, read-out: Cell viability on Hep2 cells (%)
[4] = system: Staphylococcus aureus ATCC25923; experiment: MIC by serial microdilution in liquid medium; assay type: cell-based; conditions: 24 h, 37 °C; for MIC: Staphylococcus aureus, ATCC25923, read-out: Minimum inhibitory concentration, Staphylococcus aureus ATCC25923
Experimental: (§2) The minimum inhibitory concentrations (MIC) were determined by the serial microdilution method in a liquid medium (Tryptone Soy Broth), on 96-well plates. Serial binary dilutions of the compound stock solution (10 mg/mL in DMSO) were carried out in 90 µL of culture medium and 10 µL of 10^6 CFU/mL (Colony Forming Units) microbial suspension. Each test included a positive control (wells with culture medium and microbial suspension) and a negative control for medium sterility. After incubation at 37 °C for 24 h the plates were visually examined, and optical density was measured at 620 nm. […] The MIC value (µg/mL) for the chemical compound was determined by the concentration in the final well without bacterial growth. All experiments were performed in triplicate.

[5] = system: Pseudomonas aeruginosa ATCC27853; experiment: MIC by serial microdilution in liquid medium; assay type: cell-based; conditions: Pseudomonas aeruginosa, ATCC27853; 24 h, 37 °C; read-out: Minimum inhibitory concentration, Pseudomonas aeruginosa ATCC27853
Experimental: as §2

[6] = system: Escherichia coli ATCC25922; experiment: MIC by serial microdilution in liquid medium; assay type: cell-based; conditions: 24 h, 37 °C; for MIC: Escherichia coli, ATCC25922, read-out: Minimum inhibitory concentration, Escherichia coli ATCC25922
Experimental: as §2

[7] = system: Enterococcus faecalis ATCC29212; experiment: MIC by serial microdilution in liquid medium; assay type: cell-based; conditions: Enterococcus faecalis, ATCC29212; 24 h, 37 °C; read-out: Minimum inhibitory concentration, Enterococcus faecalis ATCC29212
Experimental: as §2

[8] = system: Staphylococcus aureus ATCC25923; experiment: Qualitative evaluation of antimicrobial activity (inhibition zone, spot on agar); assay type: cell-based; set-up: key: (+) inhibited bacterial growth; (-) did not inhibit bacterial growth; conditions: 0.06 g/2 mL DMSO, 5 µL spot
Experimental: (§3) For testing the antimicrobial/antibiofilm activity, the concentration of the studied compounds was identical to 0.06 g/2 mL DMSO. 0.5 Standard McFarland suspension was used, which was inoculated onto Mueller Hinton agar plates, (Remel, Lenexa, KS, USA), 5 µL of each compound was spotted and incubated overnight at 37 °C. Antimicrobial activity was observed as zones of inhibition formed around the spot.

[9] = system: Pseudomonas aeruginosa ATCC27853; experiment: as above; assay type: cell-based; set-up: key: (+) inhibited bacterial growth; (-) did not inhibit bacterial growth; conditions: 0.06 g/2 mL DMSO, 5 µL spot
Experimental: as §3

[10] = system: Escherichia coli ATCC25922; experiment: as above; assay type: cell-based; set-up: key: (+) inhibited bacterial growth; (-) did not inhibit bacterial growth; conditions: 0.06 g/2 mL DMSO, 5 µL spot
Experimental: as §3

[11] = system: Enterococcus faecalis ATCC29212; experiment: as above; assay type: cell-based; set-up: key: (+) inhibited bacterial growth; (-) did not inhibit bacterial growth; conditions: 0.06 g/2 mL DMSO, 5 µL spot
Experimental: as §3

[12] = system: Pseudomonas aeruginosa ATCC27853; experiment: Antibiofilm assay (crystal violet), MBIC; assay type: cell-based; conditions: 37 °C; for minimal effective concentration: Pseudomonas aeruginosa, ATCC27853, 24 h, read-out: Minimum biofilm inhibition concentration (MBIC), Pseudomonas aeruginosa ATCC27853
Experimental: as §1

[13] = system: Escherichia coli ATCC25922; experiment: Antibiofilm assay (crystal violet), MBIC; assay type: cell-based; conditions: 37 °C; for minimal effective concentration: Escherichia coli, ATCC25922, 24 h, read-out: Minimum biofilm inhibition concentration (MBIC), Escherichia coli ATCC25922
Experimental: as §1

[14] = system: Enterococcus faecalis ATCC29212; experiment: Antibiofilm assay (crystal violet), MBIC; assay type: cell-based; conditions: Enterococcus faecalis, ATCC29212, 24 h, 37 °C, read-out: Minimum biofilm inhibition concentration (MBIC), Enterococcus faecalis ATCC29212
Experimental: as §1

Cc1nn(CNc2cccc(Cl)c2)c(C)c1[N+](=O)[O-] [4e, N-[(3,5-dimetyl-4-nitro-1H-pyrazol-1-yl)-methyl]-3-chloroaniline]
viability at 24 h, 3.1 µg/mL [1]: 93.1 ± 2.76%
viability at 48 h, 3.1 µg/mL [1]: 89.5 ± 2.24%
viability at 24 h, 6.25 µg/mL [1]: 94.3 ± 2.92%
viability at 48 h, 6.25 µg/mL [1]: 98.3 ± 2.03%
viability at 24 h, 12.5 µg/mL [1]: 97.8 ± 0.99%
viability at 48 h, 12.5 µg/mL [1]: 93.2 ± 2.94%
viability at 24 h, 25 µg/mL [1]: 95.6 ± 2.19%
viability at 48 h, 25 µg/mL [1]: 92.2 ± 0.89%
viability at 24 h, 50 µg/mL [1]: 63.5 ± 3.18%
viability at 48 h, 50 µg/mL [1]: 63.2 ± 2.56%
Minimum biofilm inhibition concentration (MBIC), Staphylococcus aureus ATCC25923 [2]: 460 ± 0.04 µg/mL
minimal effective concentration [2]: 460 µg/mL
viability at 3.1 µg/mL ([3]; HEp-2, 24 h): 106.5 ± 0.73%
viability at 6.25 µg/mL ([3]; HEp-2, 24 h): 103.7 ± 0.28%
viability at 12.5 µg/mL ([3]; HEp-2, 24 h): 99.7 ± 0.32%
viability at 25 µg/mL ([3]; HEp-2, 24 h): 89.15 ± 0.88%
viability at 50 µg/mL ([3]; HEp-2, 24 h): 56.46 ± 0.42%
viability at 3.1 µg/mL ([3]; HEp-2, 48 h): 98.1 ± 2.88%
viability at 6.25 µg/mL ([3]; HEp-2, 48 h): 97.1 ± 1.78%
viability at 12.5 µg/mL ([3]; HEp-2, 48 h): 94.8 ± 2.84%
viability at 25 µg/mL ([3]; HEp-2, 48 h): 81.7 ± 2.38%
viability at 50 µg/mL ([3]; HEp-2, 48 h): 54.9 ± 2.76%
Minimum inhibitory concentration, Staphylococcus aureus ATCC25923 [4]: 460 ± 0.03 µg/mL (≈ 1640 µM)
MIC [4]: 460 µg/mL (≈ 1640 µM)
MIC [5]: 930 ± 0.53 µg/mL (≈ 3310 µM)
Minimum inhibitory concentration, Escherichia coli ATCC25922 [6]: 460 ± 0.52 µg/mL (≈ 1640 µM)
MIC [6]: 460 µg/mL (≈ 1640 µM)
MIC [7]: 930 ± 0.02 µg/mL (≈ 3310 µM)
Qualitative antimicrobial activity, Staphylococcus aureus ATCC25923 [8]: +
Qualitative antimicrobial activity, Pseudomonas aeruginosa ATCC27853 [9]: +
Qualitative antimicrobial activity, Escherichia coli ATCC25922 [10]: +
Qualitative antimicrobial activity, Enterococcus faecalis ATCC29212 [11]: -
melting point: 110 to 111 °C

Cc1ncc([N+](=O)[O-])n1CCO [Metronidazole, metronidazole, reference compound]
minimal effective concentration [2]: 1950 ± 0.09 µg/mL
minimal effective concentration [12]: 1562 ± 0.11 µg/mL
minimal effective concentration [13]: 1950 ± 0.04 µg/mL
minimal effective concentration [14]: 970 ± 0.21 µg/mL
MIC [4]: 1950 ± 0.05 µg/mL (≈ 11400 µM)
MIC [5]: 1562 ± 0.03 µg/mL (≈ 9130 µM)
MIC [6]: 1950 ± 0.05 µg/mL (≈ 11400 µM)
MIC [7]: 970 ± 0.17 µg/mL (≈ 5670 µM)
Qualitative antimicrobial activity, Staphylococcus aureus ATCC25923 [8]: +
Qualitative antimicrobial activity, Pseudomonas aeruginosa ATCC27853 [9]: +
Qualitative antimicrobial activity, Escherichia coli ATCC25922 [10]: +
Qualitative antimicrobial activity, Enterococcus faecalis ATCC29212 [11]: +

Cc1nn(CNc2ccccc2Cl)c(C)c1[N+](=O)[O-] [4f, N-[(3,5-dimetyl-4-nitro-1H-pyrazol-1-yl)-methyl]-2-chloroaniline]
viability at 24 h, 3.1 µg/mL [1]: 107 ± 1.61%
viability at 48 h, 3.1 µg/mL [1]: 99.6 ± 1.2%
viability at 24 h, 6.25 µg/mL [1]: 108 ± 1.6%
viability at 48 h, 6.25 µg/mL [1]: 106 ± 1.7%
viability at 24 h, 12.5 µg/mL [1]: 103 ± 1.05%
viability at 48 h, 12.5 µg/mL [1]: 103.1 ± 0.68%
viability at 24 h, 25 µg/mL [1]: 93.7 ± 2.77%
viability at 48 h, 25 µg/mL [1]: 97.8 ± 2.35%
viability at 24 h, 50 µg/mL [1]: 87.7 ± 1.77%
viability at 48 h, 50 µg/mL [1]: 80.5 ± 1.16%
Minimum biofilm inhibition concentration (MBIC), Staphylococcus aureus ATCC25923 [2]: 460 ± 0.02 µg/mL
minimal effective concentration [2]: 460 µg/mL
Minimum biofilm inhibition concentration (MBIC), Pseudomonas aeruginosa ATCC27853 ([12]; 24 h): 460 ± 0.01 µg/mL
minimal effective concentration [12]: 460 µg/mL
Minimum biofilm inhibition concentration (MBIC), Escherichia coli ATCC25922 ([13]; 24 h): 460 ± 0.02 µg/mL
minimal effective concentration [13]: 460 µg/mL
viability at 3.1 µg/mL ([3]; HEp-2, 24 h): 98.3 ± 1.16%
viability at 6.25 µg/mL ([3]; HEp-2, 24 h): 98.61 ± 0.72%
viability at 12.5 µg/mL ([3]; HEp-2, 24 h): 95.5 ± 2.45%
viability at 25 µg/mL ([3]; HEp-2, 24 h): 94.3 ± 2.78%
viability at 50 µg/mL ([3]; HEp-2, 24 h): 93.9 ± 1.03%
viability at 3.1 µg/mL ([3]; HEp-2, 48 h): 98.3 ± 3.38%
viability at 6.25 µg/mL ([3]; HEp-2, 48 h): 97.74 ± 0.62%
viability at 12.5 µg/mL ([3]; HEp-2, 48 h): 93.63 ± 0.75%
viability at 25 µg/mL ([3]; HEp-2, 48 h): 86 ± 0.93%
viability at 50 µg/mL ([3]; HEp-2, 48 h): 72.8 ± 2.33%
Minimum inhibitory concentration, Staphylococcus aureus ATCC25923 [4]: 460 ± 0.01 µg/mL (≈ 1640 µM)
MIC [4]: 460 µg/mL (≈ 1640 µM)
MIC [5]: 460 ± 0.03 µg/mL (≈ 1640 µM)
Minimum inhibitory concentration, Escherichia coli ATCC25922 [6]: 460 ± 0.02 µg/mL (≈ 1640 µM)
MIC [6]: 460 µg/mL (≈ 1640 µM)
MIC [7]: 930 ± 0.04 µg/mL (≈ 3310 µM)
Qualitative antimicrobial activity, Staphylococcus aureus ATCC25923 [8]: +
Qualitative antimicrobial activity, Pseudomonas aeruginosa ATCC27853 [9]: +
Qualitative antimicrobial activity, Escherichia coli ATCC25922 [10]: +
Qualitative antimicrobial activity, Enterococcus faecalis ATCC29212 [11]: -
melting point: 134 to 135 °C

O=C1CN(/N=C/c2ccc([N+](=O)[O-])o2)C(=O)N1 [Nitrofurantoin, nitrofurantoin, reference compound]
minimal effective concentration [2]: 2230 ± 0.13 µg/mL
minimal effective concentration [12]: 550 ± 0.23 µg/mL
minimal effective concentration [13]: 600 ± 0.03 µg/mL
minimal effective concentration [14]: 600 ± 0.17 µg/mL
MIC [4]: 600 ± 0.04 µg/mL (≈ 2520 µM)
MIC [5]: 3571 ± 0.08 µg/mL (≈ 15000 µM)
MIC [6]: 600 ± 0.02 µg/mL (≈ 2520 µM)
MIC [7]: 600 ± 0.12 µg/mL (≈ 2520 µM)
Qualitative antimicrobial activity, Staphylococcus aureus ATCC25923 [8]: +
Qualitative antimicrobial activity, Pseudomonas aeruginosa ATCC27853 [9]: +
Qualitative antimicrobial activity, Escherichia coli ATCC25922 [10]: +
Qualitative antimicrobial activity, Enterococcus faecalis ATCC29212 [11]: +

Source: publication PMC11672400, “Synthesis, Spectroscopic Characterization, Structural Analysis, and Evaluation of Anti-Tumor, Antimicrobial, and Antibiofilm Activities of Halogenoaminopyrazoles Derivatives” (Antibiotics, 2024)
